Literature values in patent publication US10959985B1, “Pharmaceutical compositions including carvedilol and methods of using the same” (ECI Pharmaceuticals, LLC, priority 2019, dated 2021).
Read-outs that look alike come from different tables or passages of the source.

COc1ccccc1OCCNCC(O)COc1cccc2[nH]c3ccccc3c12 (racemic) [Carvedilol, (±) 1-(9H-carbazol-4-yloxy)-3-[[2(2-methoxyphenoxy)ethyl]amino]-2-propanol]
solubility in water: practically insoluble | intraperitoneal LD50 (mice; intraperitoneal): 364 mg/kg | oral LDLO (mice; oral): 8 gm/kg | intraperitoneal LD50 (rats; intraperitoneal): 769 mg/kg | oral LDLO (rats; oral): 8 gm/kg | oral TDLO (humans; men): 5.357 mg/kg | oral TDLO (humans; women): 12 mg/kg
